Data published in patent publication US4486419A, “5,2',3',4',4",6"-Hexadeoxykanamycin and its 1-N-acylated derivative” (Zaidan Hojin Biseibutsu Kagaku Kenkyu Kai, priority 1982, dated 1984).
Converted amounts (≈) assume the structure as drawn. Read-outs that look alike come from different tables or passages of the source.

Key:
Providencia 2991 = assay type: cell-based; conditions: nutrient agar, 37° C., 18 hours
[1] = test system: Escherichia coli K-12 ML 1629; assay type: cell-based; conditions: K12ML1629, nutrient agar, 37° C., 18 hours
[2] = test system: Pseudomonas aeruginosa H11; assay type: cell-based; conditions: nutrient agar, 37° C., 18 hours
Salmonella typhi T-63 = assay type: cell-based; conditions: Salmonella enterica, 18 h
[3] = test system: Salmonella enteritidis 1891; assay type: cell-based; conditions: Salmonella enterica, nutrient agar, 37° C., 18 hours
[4] = test system: Escherichia coli K-12 ML 1630; assay type: cell-based; conditions: K12ML1630, nutrient agar, 37° C., 18 hours
Bacillus anthracis = test: microbe, parasite or virus in culture; assay type: cell-based; conditions: 18 h
[5] = test system: Pseudomonas aeruginosa No. 12; assay type: cell-based; conditions: nutrient agar, 37° C., 18 hours
[6] = test system: Pseudomonas maltophilia GN907; assay type: cell-based; conditions: Stenotrophomonas maltophilia, nutrient agar, 37° C., 18 hours
[7] = test system: Shigella dysenteriae JS 11910; assay type: cell-based; conditions: JS11910, 18 h
[8] = test system: Escherichia coli K-12 LA 290 R55; test: microbe, parasite or virus in culture; assay type: cell-based; conditions: K12LA290R55, 18 h
Escherichia coli NIHJ = assay type: cell-based; conditions: nutrient agar, 37° C., 18 hours
Proteus rettgeri GN311 = assay type: cell-based; conditions: Providencia rettgeri, nutrient agar, 37° C., 18 hours
[9] = test system: Pseudomonas aeruginosa K-Ps102; assay type: cell-based
[10] = test system: Escherichia coli K-12 LA 290 R64; test: microbe, parasite or virus in culture; assay type: cell-based; conditions: K12LA290R64, 18 h
[11] = test system: Pseudomonas aeruginosa 99; assay type: cell-based
Serratia marcescens = test: microbe, parasite or virus in culture; conditions: 18 h
Description: (§1) Thus, the minimum inhibitory concentrations (mcg/ml) of the hexadeoxykanamycin and of the hexadeoxyamikacin according to this invention against various microorganisms were determined according to serial dilution method on a nutrient agar medium at 37° C., the estimation being made after 18 hours incubation. For comparison purpose, the minimum inhibitory concentrations of amikacin were also determined in the same manner as stated above.

[12] = test system: Corynebacterium bovis 1810; test: microbe, parasite or virus in culture; conditions: Corynebacterium bovis, 1810, 18 h
Description: as §1

[13] = test system: Pseudomonas aeruginosa GN315; assay type: cell-based; conditions: nutrient agar, 37° C., 18 hours
[14] = test system: Pseudomonas aeruginosa B-13; assay type: cell-based
Serratia SOU = assay type: cell-based; conditions: nutrient agar, 37° C., 18 hours
Providencia Pv 16 = assay type: cell-based; conditions: PV16, nutrient agar, 37° C., 18 hours
[15] = test system: Escherichia coli K-12 J5R 11-2; assay type: cell-based; conditions: K12J5R112, nutrient agar, 37° C., 18 hours
[16] = test system: Klebsiella pneumoniae 22 #3038; assay type: cell-based; conditions: nutrient agar, 37° C., 18 hours
[17] = test system: Bacillus subtilis NRRL B-558; assay type: cell-based; conditions: NRRLB558, nutrient agar, 37° C., 18 hours
[18] = test system: Staphylococcus aureus FDA 209P; assay type: cell-based; conditions: FDA209P, nutrient agar, 37° C., 18 hours
Escherichia coli W677 = assay type: cell-based; conditions: nutrient agar, 37° C., 18 hours
[19] = test system: Escherichia coli K-12 C 600R135; test: microbe, parasite or virus in culture; assay type: cell-based; conditions: K12C600R135, 18 h
[20] = test system: Staphylococcus aureus Smith; assay type: cell-based; conditions: nutrient agar, 37° C., 18 hours
Escherichia coli K-12 = assay type: cell-based; conditions: K12, nutrient agar, 37° C., 18 hours
[21] = test system: Pseudomonas aeruginosa 21-75; assay type: cell-based; conditions: 2175, nutrient agar, 37° C., 18 hours
[22] = test system: Shigella flexneri 4b JS11811; assay type: cell-based; conditions: 4BJS11811, nutrient agar, 37° C., 18 hours
[23] = test system: Staphylococcus aureus Ap01; assay type: cell-based; conditions: nutrient agar, 37° C., 18 hours
Shigella sonnei JS11746 = assay type: cell-based; conditions: nutrient agar, 37° C., 18 hours
[24] = test system: Escherichia coli K-12 ML 1410 R81; test: microbe, parasite or virus in culture; assay type: cell-based; conditions: 18 h
Escherichia coli K-12 R5 = assay type: cell-based; conditions: K12R5, 18 h
[25] = test system: Staphylococcus epidermidis 109; assay type: cell-based; conditions: nutrient agar, 37° C., 18 hours
Proteus rettgeri GN466 = assay type: cell-based; conditions: Providencia rettgeri, nutrient agar, 37° C., 18 hours
Proteus vulgaris OX19 = assay type: cell-based; conditions: nutrient agar, 37° C., 18 hours
Serratia 4 = assay type: cell-based; conditions: nutrient agar, 37° C., 18 hours
[26] = test system: Escherichia coli K-12 R 388; assay type: cell-based; conditions: K12R388, 18 h
[27] = test system: Escherichia coli JR66/W677; assay type: cell-based; conditions: JR66/W677, 18 h
[28] = test system: Pseudomonas aeruginosa A3; assay type: cell-based

**Q.** What does the source list for NCC[C@H](O)C(=O)N[C@@H]1C[C@H](N)[C@@H](O[C@H]2O[C@H](CN)[C@@H](O)[C@H](O)[C@H]2O)[C@H](O)[C@H]1O[C@H]1O[C@H](CO)[C@@H](O)[C@H](N)[C@H]1O [Amikacin, 1-N-[(S)-4-amino-2-hydroxybutyryl]kanamycin A, reference compound]?
**A.** MIC (Providencia 2991): 1.56 µg/mL (≈ 2.66 µM); MIC [1]: 1.56 µg/mL (≈ 2.66 µM); MIC [2]: 12.5 µg/mL (≈ 21.3 µM); MIC (Salmonella typhi T-63): 0.39 µg/mL (≈ 0.666 µM); MIC [3]: 1.56 µg/mL (≈ 2.66 µM); MIC [4]: 3.13 µg/mL (≈ 5.34 µM); MIC (Bacillus anthracis): 0.78 µg/mL (≈ 1.33 µM); MIC [5]: 3.13 µg/mL (≈ 5.34 µM); MIC [6]: > 100 µg/mL; MIC [7]: 3.13 µg/mL (≈ 5.34 µM); MIC [8]: 1.56 µg/mL (≈ 2.66 µM); MIC (Escherichia coli NIHJ): 1.56 µg/mL (≈ 2.66 µM); MIC (Proteus rettgeri GN311): 0.39 µg/mL (≈ 0.666 µM); MIC ([9]; KPS102, nutrient agar, 37° C., 18 hours, read-out: MIC): 6.25 µg/mL (≈ 10.7 µM); MIC [10]: 1.56 µg/mL (≈ 2.66 µM); MIC ([11]; Pseudomonas aeruginosa, 99, nutrient agar, 37° C., 18 hours, read-out: MIC): 6.25 µg/mL (≈ 10.7 µM); MIC (Serratia marcescens): 1.56 µg/mL (≈ 2.66 µM); MIC [12]: 1.56 µg/mL (≈ 2.66 µM); MIC [13]: 25 µg/mL (≈ 42.7 µM); MIC ([14]; B13, nutrient agar, 37° C., 18 hours, read-out: MIC): 6.25 µg/mL (≈ 10.7 µM); MIC (Serratia SOU): 25 µg/mL (≈ 42.7 µM); MIC (Providencia Pv 16): 1.56 µg/mL (≈ 2.66 µM); MIC [15]: 1.56 µg/mL (≈ 2.66 µM); MIC [16]: 3.13 µg/mL (≈ 5.34 µM); MIC [17]: 0.39 µg/mL (≈ 0.666 µM); MIC [18]: 0.78 µg/mL (≈ 1.33 µM); MIC (Escherichia coli W677): 0.78 µg/mL (≈ 1.33 µM); MIC [19]: 0.78 µg/mL (≈ 1.33 µM); MIC [20]: 0.39 µg/mL (≈ 0.666 µM); MIC (Escherichia coli K-12): 0.39 µg/mL (≈ 0.666 µM); MIC [21]: 12.5 µg/mL (≈ 21.3 µM); MIC [22]: 3.13 µg/mL (≈ 5.34 µM); MIC [23]: 1.56 µg/mL (≈ 2.66 µM); MIC (Shigella sonnei JS11746): 3.13 µg/mL (≈ 5.34 µM); MIC [24]: 1.56 µg/mL (≈ 2.66 µM); MIC (Escherichia coli K-12 R5): 100 µg/mL (≈ 171 µM); MIC [25]: 3.13 µg/mL (≈ 5.34 µM); MIC (Proteus rettgeri GN466): 0.78 µg/mL (≈ 1.33 µM); MIC (Proteus vulgaris OX19): 1.56 µg/mL (≈ 2.66 µM); MIC (Serratia 4): 3.13 µg/mL (≈ 5.34 µM); MIC [26]: 0.39 µg/mL (≈ 0.666 µM); MIC [27]: 3.13 µg/mL (≈ 5.34 µM); MIC ([28]; A3, nutrient agar, 37° C., 18 hours, read-out: MIC): < 0.2 µg/mL

**Q.** What does the source list for C[C@@H]1C[C@H](N)[C@@H](O)[C@@H](O[C@@H]2C[C@H](O[C@@H]3CCC[C@@H](CN)O3)[C@@H](N)C[C@H]2NC(=O)[C@@H](O)CCN)O1 [Hexadeoxyamikacin, 1-N-[(S)-4-amino-2-hydroxybutyryl]-5,2',3',4',4",6"-hexadeoxykanamycin]?
**A.** MIC (Providencia 2991): 6.25 µg/mL (≈ 12.8 µM); MIC [1]: 1.56 µg/mL (≈ 3.19 µM); MIC [2]: 100 µg/mL (≈ 204 µM); MIC (Salmonella typhi T-63): 0.78 µg/mL (≈ 1.59 µM); MIC [3]: 3.13 µg/mL (≈ 6.39 µM); MIC [4]: 3.13 µg/mL (≈ 6.39 µM); MIC (Bacillus anthracis): 1.56 µg/mL (≈ 3.19 µM); MIC [5]: 25 µg/mL (≈ 51.1 µM); MIC [6]: > 100 µg/mL; MIC [7]: 6.25 µg/mL (≈ 12.8 µM); MIC [8]: 1.56 µg/mL (≈ 3.19 µM); MIC (Escherichia coli NIHJ): 1.56 µg/mL (≈ 3.19 µM); MIC (Proteus rettgeri GN311): 1.56 µg/mL (≈ 3.19 µM); MIC ([9]; KPS102, 18 h): 50 µg/mL (≈ 102 µM); MIC [10]: 3.13 µg/mL (≈ 6.39 µM); MIC ([11]; Pseudomonas aeruginosa, 99, 18 h): 50 µg/mL (≈ 102 µM); MIC (Serratia marcescens): 6.25 µg/mL (≈ 12.8 µM); MIC [12]: 6.25 µg/mL (≈ 12.8 µM); MIC [13]: > 100 µg/mL; MIC ([14]; B13, 18 h): 50 µg/mL (≈ 102 µM); MIC (Serratia SOU): 50 µg/mL (≈ 102 µM); MIC (Providencia Pv 16): 3.13 µg/mL (≈ 6.39 µM); MIC [15]: 1.56 µg/mL (≈ 3.19 µM); MIC [16]: 3.13 µg/mL (≈ 6.39 µM); MIC [17]: 0.78 µg/mL (≈ 1.59 µM); MIC [18]: 0.78 µg/mL (≈ 1.59 µM); MIC (Escherichia coli W677): 0.78 µg/mL (≈ 1.59 µM); MIC [19]: 1.56 µg/mL (≈ 3.19 µM); MIC [20]: 1.56 µg/mL (≈ 3.19 µM); MIC (Escherichia coli K-12): 0.78 µg/mL (≈ 1.59 µM); MIC [21]: 100 µg/mL (≈ 204 µM); MIC [22]: 6.25 µg/mL (≈ 12.8 µM); MIC [23]: 3.13 µg/mL (≈ 6.39 µM); MIC (Shigella sonnei JS11746): 3.13 µg/mL (≈ 6.39 µM); MIC [24]: 3.13 µg/mL (≈ 6.39 µM); MIC (Escherichia coli K-12 R5): 100 µg/mL (≈ 204 µM); MIC [25]: 1.56 µg/mL (≈ 3.19 µM); MIC (Proteus rettgeri GN466): 1.56 µg/mL (≈ 3.19 µM); MIC (Proteus vulgaris OX19): 0.78 µg/mL (≈ 1.59 µM); MIC (Serratia 4): 12.5 µg/mL (≈ 25.5 µM); MIC [26]: 0.78 µg/mL (≈ 1.59 µM); MIC [27]: 3.13 µg/mL (≈ 6.39 µM); MIC ([28]; A3, 18 h): 0.78 µg/mL (≈ 1.59 µM)
